For eight compounds, activity, EC50 and MNTC results are on record in patent EP0516015A1, “Substituted decarestrictines, methods for their preparation and use thereof” (HOECHST AKTIENGESELLSCHAFT, priority 1991, dated 1992).

Converted amounts (≈) assume the structure as drawn.

One data set deals with Cholesterinbiosynthese. Briefly: Inhibition of cholesterol biosynthesis from [14C] sodium acetate in HEP-G2 cell monolayers. Type of data set: cell-based. To be noted: Homo sapiens, HepG2, HEP-G2-Zellen, 1 h preincubation, 3 h with [14C] sodium acetate, read-out: Cholesterin in Prozent der Kontrolle; for activity at 0.01 µM: Konzentration 10⁻⁸ M. From the text:
Monolayer von HEP-G2-Zellen in lipoproteinfreiem Nährmedium werden mit entsprechenden Konzentrationen der zu prüfenden Substanzen aus den Beispielen 1, 3, 4, 5, 6, 8 und 15 eine Stunde vorinkubiert. Nach Zugabe der ¹⁴C-markierten Biosynthesevorstufe [¹⁴C]Natriumacetat wird die Inkubation für 3 Stunden fortgesetzt. Danach wird ein Teil der Zellen alkalisch verseift, bei vorheriger Zugabe eines internen Standards von ³H-Cholesterin. Die Lipide der verseiften Zellen werden mit einem Gemisch aus Chloroform-Methanol extrahiert. Dieses Lipidgemisch wird nach Zusatz von Trägercholesterin präparativ dünnschichtchromatographisch aufgetrennt, die Cholesterinbande nach Anfärbung isoliert und die aus dem ¹⁴C-Precursor gebildete Menge ¹⁴C-Cholesterin szintigraphisch bestimmt. In einem aliquoten Teil der Zellen wurde Zellprotein bestimmt, sodaß die in der Zelleinheit pro mg Zellprotein aus ¹⁴C-Vorläufer gebildete Menge ¹⁴C-Cholesterin berechnet werden kann. Zum Vergleich für die Hemmwirkung eines zugesetzten Prüfpräparates dient die Kontrolle, so daß direkt die Hemmung der Cholesterinbiosynthese bei einer bestimmten molaren Konzentration des Prüfpräparates im Medium angegeben werden kann. In aliquoten Anteilen der Zellkultur wird die Intaktheit der Zellkultur und die fehlende Zellschädigung durch Präparateeinwirkung morphologisch (Lichtmikroskopie) beurteilt und biochemisch durch Bestimmung der Laktat-Dehydrogenase Ausschüttung im Inkubationsmedium gemessen. Als Standardpräparat wurde ®Lovastatin (Merck-Sharp-Dohm) benutzt.

A further data set relates to Influenza A. Briefly: microbe, parasite or virus in culture. To be noted: 72 h, read-out: MHK. Type of data set: cell-based.
The next data set can be described thus: in vitro. To be noted: hela or vero cells.
The next data set concerns Herpes I. Briefly: Antiviral activity in cell culture (CPE, neutral red uptake). Type of data set: cell-based. To be noted: HeLa or Vero cells, 72 h, MHK = concentration at which about 50 % of the cells survived the infection.
Another data set relates to Rhinovirus II. Described as above. To be noted: Enterovirus; Rhino. II; HeLa or Vero cells, 72 h; MHK = concentration at which about 50 % of the cells survived the infection. Type of data set: cell-based.
The test system of another data set is Vaccina. The experiment in a line: microbe, parasite or virus in culture. The data set is classed as cell-based. To be noted: 72 h, read-out: MHK.
The subject of the next data set is Herpes II. The experiment in a line: Antiviral activity in cell culture (CPE, neutral red uptake). Type of data set: cell-based. To be noted: HeLa or Vero cells, 72 h, MHK = concentration at which about 50 % of the cells survived the infection.

Consider `CC[C@H](C)C(=O)O[C@H]1C[C@@H](C)C=C2C=C[C@H](C)[C@H](CC[C@@H]3C[C@@H](O)CC(=O)O3)[C@H]21` [Lovastatin, reference compound], for which, in the data set on Cholesterinbiosynthese, the activity at 0.01 µM amounted to 55%.

Regarding `CC1CC(O[C@H]2O[C@H](COCc3ccccc3)[C@@H](OCc3ccccc3)[C@H](OCc3ccccc3)[C@H]2OCc2ccccc2)CCC2OC(C)(C)OC2CC(=O)O1` (stereo partly drawn) [Verbindung 1, 4,5-Dihydroxy-O-isopropyliden-10-methyl-1-oxa-8(2,3,4,6-tetra-O-benzyl-α-D-glucopyranosyl-oxy)-2-cyclodecanon], in the data set on Cholesterinbiosynthese, the activity at 0.01 µM stood at 41%.

In the case of `COC1C=CC(OC)C(OC)CC(=O)OC(C)C1` (stereo not shown) [Verbindung 3, 10-Methyl-4,5,8-trimethoxy-1-oxa-6-cyclodecen-2-on], the activity at 1 µM in the data set with Cholesterinbiosynthese (Konzentration 10⁻⁶ M) came out at 28%. The activity at 0.01 µM with Cholesterinbiosynthese was 33%.

Turning to `CC(=O)OC1CCC(O)C(O)CC(=O)OC(C)C1` (stereo not shown) [Verbindung 4, 8-Acetyloxy-4,5-dihydroxy-10-methyl-1-oxa-cyclodecan-2-on], in the data set on Cholesterinbiosynthese, the activity at 0.01 µM was 45%.

Consider `CC1CC(O)C2OC2C(O)C(O)CC(=O)O1` (stereo not shown) [Verbindung 5, 2-Carbonyl-10-methyl-1-oxa-4,5,8-trihydroxy-6-cyclodecenoxid], for which, in the data set with Cholesterinbiosynthese, the activity at 0.01 µM is 33%.

Regarding `CC(=O)OC1/C=C/C(OC(C)=O)C(OC(C)=O)CC(=O)OC(C)C1` (stereo not shown) [Verbindung 6, 10-Methyl-1-oxa-4,5,8-triacetyloxy-6-cyclodecen-2-on], the EC50 in the data set on Influenza A is 14 µg/mL (≈ 40.9 µM); in the data set on Herpes I, 0.55 µg/mL (≈ 1.61 µM); with Rhinovirus II, 44.4 µg/mL (≈ 130 µM); with Vaccina, 0.49 µg/mL (≈ 1.43 µM); in the data set on Herpes II it was 0.55 µg/mL (≈ 1.61 µM). Also, in the data set “in vitro”, the MNTC at 72 h came out at 133 µg/mL. The activity at 10 µM in the data set with Cholesterinbiosynthese (Konzentration 10⁻⁵ M) was determined as 32%. For the same compound, in the data set on Cholesterinbiosynthese (Konzentration 10⁻⁷ M), the activity at 0.1 µM was 30%.

For `CC1CC(OC=O)C=CC(O)C(O)CC(=O)O1` (stereo not shown) [Verbindung 8, 4,5-Dihydroxy-8-formyl-oxy-10-methyl-1-oxa-6-cyclodecen-2-on], the activity at 0.01 µM with Cholesterinbiosynthese turned out to be 67%.

Turning to `CC1CC(O)CCC(O)C(O)CC(=O)O1` (stereo not shown) [Verbindung 15, 10-Methyl-1-oxa-4,5,8-trihydroxy-cyclodecan-2-on], the activity at 0.01 µM with Cholesterinbiosynthese turned out to be 73%.
